{"source": "patent US20210145730A1", "about": "“PROCESS FOR PREPARING AN ORAL DISINTEGRATING DOSAGE FORM” (Zeenar Enterprises Pty Ltd, priority 2017, published 2021)", "key": {"[1]": {"assay": "SAXS liquid crystalline phase formation for mixes of GMO and another ingredient immersed in PBS buffer (Example 1)", "type": "physicochemical", "protocol": "The samples were then mixed via a roller mixer at ˜10 RPM at 40° C. for at least 3 days. One week prior to SAXS experiment, 100 mg samples were loaded into a transparent polystyrene 96 well plate (Nunc™) and immersed in 200 μL of PBS buffer (pH 6.8). The samples were stored away from light at ambient temperature, to allow the samples to reach equilibrium. The SAXS/WAXS beamline at Australian Synchrotron, Melbourne, Australia was used to determine the liquid crystalline nanostructure in the samples. A custom-designed plate holder was used to mount the samples plate directly onto the SAXS/WAXS beamline. Scans were automated using a pre-loaded set of position variables based on the well positions within the plate, the exposure time was 5 sec. Data were obtained at ambient temperature (˜22° C.). […] The 2-D diffraction images were recorded on a Pilatus 1M detector and radially integrated using the in-house software “ScatterBrain”."}, "[2]": {"test_system": "porcine buccal mucosa", "assay": "In vitro release through porcine buccal mucosa in Ussing chamber", "details": "up to 4 hours, n=5"}, "[3]": {"details": "cited from earlier work"}, "[4]": {"details": "WO 2014/179845; cited from earlier work"}, "[5]": {"details": "1% w/w ingredient in mix with GMO"}, "[6]": {"details": "5% w/w ingredient in mix with GMO"}, "[7]": {"details": "20% and above w/w ingredient in mix with GMO"}}, "note": "Structures can show the parent of a compound that is named as a salt. Where two headings read alike, the source gives them in different places.", "data": [{"smiles": "CCOC(=O)CC(O)(CC(=O)OCC)C(=O)OCC", "note": "[Tri ethyl citrate (TEC), Tri ethyl citrate]", "values": [{"measurement": "Liquid crystalline phase formed", "setting": "[1]; 35% and above w/w ingredient in mix with GMO", "value": "reverse emulsion"}, {"measurement": "Phase structure", "setting": "[1]; Concentration in GMO 1%", "value": "V2(Pn3m) (ie"}, {"measurement": "Phase structure", "setting": "[1]; Concentration in GMO 5%", "value": "V2(Pn3m)"}, {"measurement": "Phase structure", "setting": "[1]; Concentration in GMO 10%", "value": "V2(Pn3m)"}, {"measurement": "Phase structure", "setting": "[1]; Concentration in GMO 20%", "value": "V2(Pn3m)"}, {"measurement": "Liquid crystalline phase formed", "setting": "[1]; up to 20% w/w ingredient in mix with GMO", "value": "cubic"}]}, {"smiles": "COc1ccc2c3c1O[C@H]1C(=O)CC[C@@]4(O)[C@@H](C2)N(C)CC[C@]314", "note": "[Oxycodone]", "values": [{"measurement": "release characteristics (appearance of active ingredient in the receptor chamber over time)", "setting": "[2]", "value": "prolonged release profile with release continuing steadily at 4 hours"}]}, {"smiles": "O=S(=O)([O-])NC1CCCCC1.[Na+]", "note": "[Sodium cyclamate]", "values": [{"measurement": "Liquid crystalline phase formed", "setting": "[1]; 20% w/w ingredient in mix with GMO", "value": "lamellar"}, {"measurement": "Liquid crystalline phase formed", "setting": "[1]; 50% w/w ingredient in mix with GMO", "value": "lamellar + crystals"}, {"measurement": "Phase structure", "setting": "[1]; Concentration in GMO 1%", "value": "V2(Pn3m)"}, {"measurement": "Phase structure", "setting": "[1]; Concentration in GMO 5%", "value": "V2(Pn3m)"}, {"measurement": "Phase structure", "setting": "[1]; Concentration in GMO 10%", "value": "V2(Pn3m) + other"}, {"measurement": "Phase structure", "setting": "[1]; Concentration in GMO 20%", "value": "Lα (lamella)"}, {"measurement": "Phase structure", "setting": "[1]; Concentration in GMO 35%", "value": "Lα + other"}, {"measurement": "Phase structure", "setting": "[1]; Concentration in GMO 50%", "value": "Lα + other"}, {"measurement": "Liquid crystalline phase formed", "setting": "[1]; up to 10% w/w ingredient in mix with GMO", "value": "cubic"}]}, {"smiles": "O=C(O)c1cccnc1", "note": "[Niacin]", "values": [{"measurement": "logP", "setting": "[3]", "value": 0.36}, {"measurement": "liquid crystalline phase formed by blend with GMO", "setting": "[4]", "value": "hexagonal phase"}]}, {"smiles": "CC1CCC(C(C)C)C(O)C1", "note": "(centres unmarked) [Menthol]", "values": [{"measurement": "Liquid crystalline phase formed", "setting": "[1]; [5]", "value": "Cubic"}, {"measurement": "Liquid crystalline phase formed", "setting": "[1]; 1% w/w ingredient in mix with GMO, listed as menthol", "value": "cubic liquid crystalline structure"}, {"measurement": "Liquid crystalline phase formed", "setting": "[1]; [6]", "value": "hexagonal liquid crystalline structure"}, {"measurement": "Liquid crystalline phase formed", "setting": "[1]; 5-10% w/w ingredient in mix with GMO", "value": "Hexagonal"}, {"measurement": "Liquid crystalline phase formed", "setting": "[1]; [7]", "value": "Lamellar"}, {"measurement": "Liquid crystalline phase formed", "setting": "[1]; 20 to 50% ingredient directly mixed with GMO", "value": "reverse lamella crystalline structure"}, {"measurement": "Phase structure", "setting": "[1]; Concentration in GMO 1%", "value": "V2(Pn3m)"}]}, {"smiles": "CNCC(O)c1ccc(O)c(O)c1", "note": "(centres unmarked) [Adrenaline]", "values": [{"measurement": "logP", "setting": "[3]", "value": "−0.5 to −1.2"}]}, {"smiles": "CC(C)c1nc(N(C)S(C)(=O)=O)nc(-c2ccc(F)cc2)c1/C=C/[C@@H](O)C[C@@H](O)CC(=O)O", "note": "[Rosuvastatin, reference compound]", "values": [{"measurement": "Liquid crystalline phase formed", "setting": "[1]; [7]", "value": "Lamellar"}, {"measurement": "Phase structure", "setting": "[1]; Concentration in GMO 1%", "value": "V2(Pn3m)"}, {"measurement": "Phase structure", "setting": "[1]; Concentration in GMO 5%", "value": "V2(Pn3m)"}, {"measurement": "Phase structure", "setting": "[1]; Concentration in GMO 10%", "value": "V2(Pn3m)"}, {"measurement": "Phase structure", "setting": "[1]; Concentration in GMO 15%", "value": "V2(Pn3m) + V2(Im3m)"}, {"measurement": "Phase structure", "setting": "[1]; Concentration in GMO 20%", "value": "Lα"}, {"measurement": "Phase structure", "setting": "[1]; Concentration in GMO 35%", "value": "Lα + Lα"}, {"measurement": "Phase structure", "setting": "[1]; Concentration in GMO 50%", "value": "Lα"}, {"measurement": "limit of inclusion before GMO is prevented from forming a cubic liquid crystalline structure", "setting": "[1]; directly mixed with GMO, contact with hydrophilic solvent", "value": 15, "unit": "%"}, {"measurement": "Liquid crystalline phase formed", "setting": "[1]; up to 15% w/w ingredient in mix with GMO", "value": "Cubic (2 types)"}, {"measurement": "logP", "setting": "[3]; at pH 5", "value": 1.80, "unit": "at pH 5"}, {"measurement": "logP", "setting": "[3]; at pH 7", "value": 0.30, "unit": "at pH 7"}]}, {"smiles": "COc1ccc(O)c(C(C)(C)C)c1", "note": "[Butylated hydroxy anisole (BHA), Butylated hydroxy anisole]", "values": [{"measurement": "Liquid crystalline phase formed", "setting": "[1]; [5]", "value": "cubic"}, {"measurement": "Liquid crystalline phase formed", "setting": "[1]; [6]", "value": "cubic + hexagonal"}, {"measurement": "Liquid crystalline phase formed", "setting": "[1]; 10-20% w/w ingredient in mix with GMO", "value": "hexagonal"}, {"measurement": "Liquid crystalline phase formed", "setting": "[1]; 30% and above w/w ingredient in mix with GMO", "value": "reverse emulsion"}, {"measurement": "Phase structure", "setting": "[1]; Concentration in GMO 1%", "value": "V2(Pn3m)"}, {"measurement": "Phase structure", "setting": "[1]; Concentration in GMO 5%", "value": "V2(Pn3m) + H2"}]}]}
